Results reported in the NIST ThermoML archive (doi:10.1016/j.jct.2018.12.042).
Numbers after ± are expanded uncertainties.

Conditions: for surface tension liquid-gas: Pendant drop shape; for mass density: 101.33 kPa, Liquid, Vibrating tube method

| Compound | surface tension liquid-gas (293.15 K) | surface tension liquid-gas (298.15 K) | surface tension liquid-gas (303.15 K) | surface tension liquid-gas (308.15 K) | surface tension liquid-gas (313.15 K) | surface tension liquid-gas (288.15 K) | mass density (298.15 K) | surface tension liquid-gas (318.15 K) | mass density (288.15 K) | mass density (293.15 K) | mass density (303.15 K) | mass density (308.15 K) | mass density (313.15 K) | mass density (318.15 K) | mass density (328.15 K) |
| --- | --- | --- | --- | --- | --- | --- | --- | --- | --- | --- | --- | --- | --- | --- | --- |
| BrCCCCBr [1,4-dibromobutane] | 39.91 ± 0.72 mN/m | 39.46 ± 0.72 mN/m | 38.92 ± 0.71 mN/m | 38.29 ± 0.7 mN/m | 37.67 ± 0.68 mN/m |  |  |  |  |  |  |  |  |  |  |
| ClCCCCCl [1,4-dichlorobutane] | 33.73 ± 0.62 mN/m | 33.15 ± 0.61 mN/m | 32.55 ± 0.6 mN/m | 32.1 ± 0.59 mN/m | 31.59 ± 0.58 mN/m |  |  |  |  |  |  |  |  |  |  |
| CCCCCCO [hexan-1-ol] | 26.06 ± 0.48 mN/m | 25.71 ± 0.48 mN/m | 25.34 ± 0.47 mN/m | 24.9 ± 0.5 mN/m | 24.52 ± 0.46 mN/m | 26.34 ± 0.49 mN/m | 815.18 ± 1 kg/m3 | 24.12 ± 0.45 mN/m |  |  |  |  |  |  |  |
| ClCCCCCCl [1,5-dichloropentane] | 35.02 ± 0.64 mN/m | 34.43 ± 0.63 mN/m | 33.85 ± 0.62 mN/m | 33.22 ± 0.61 mN/m | 32.78 ± 0.6 mN/m |  | 1095.01 ± 1 kg/m3 |  | 1103.31 ± 1 kg/m3 | 1100.06 ± 1 kg/m3 | 1089.95 ± 1 kg/m3 | 1084.89 ± 1 kg/m3 | 1079.84 ± 1 kg/m3 | 1074.67 ± 1 kg/m3 | 1064.63 ± 1 kg/m3 |
| BrCCCCCBr [1,5-dibromopentane] | 39.37 ± 0.71 mN/m | 38.65 ± 0.7 mN/m | 38.16 ± 0.69 mN/m | 37.6 ± 0.68 mN/m | 37.23 ± 0.68 mN/m |  |  |  |  |  |  |  |  |  |  |
| BrCCBr [1,2-dibromoethane] | 38.81 ± 0.7 mN/m | 38.07 ± 0.69 mN/m | 37.48 ± 0.68 mN/m | 36.75 ± 0.67 mN/m | 36.1 ± 0.66 mN/m |  |  |  |  |  |  |  |  |  |  |
| ClCCCl [1,2-dichloroethane] | 28 ± 0.52 mN/m | 27.57 ± 0.51 mN/m | 27.06 ± 0.5 mN/m | 26.54 ± 0.49 mN/m | 26.02 ± 0.48 mN/m |  |  |  |  |  |  |  |  |  |  |
| BrCCCBr [1,3-dibromopropane] | 39.66 ± 0.72 mN/m | 38.95 ± 0.71 mN/m | 38.33 ± 0.7 mN/m | 37.6 ± 0.68 mN/m | 37.12 ± 0.68 mN/m |  |  |  |  |  |  |  |  |  |  |
| O [water] | 72.84 ± 1.2 mN/m | 72.14 ± 1.2 mN/m |  |  |  | 73.43 ± 1.2 mN/m |  |  |  |  |  |  |  |  |  |
| CCCCCO [pentan-1-ol] | 25.17 ± 0.47 mN/m | 24.85 ± 0.46 mN/m | 24.4 ± 0.5 mN/m | 23.96 ± 0.45 mN/m | 23.62 ± 0.44 mN/m |  | 810.84 ± 1 kg/m3 | 23.28 ± 0.44 mN/m |  |  |  |  |  |  |  |
| ClCCCCl [1,3-dichloropropane] | 31.22 ± 0.57 mN/m | 30.77 ± 0.57 mN/m | 30.2 ± 0.56 mN/m | 29.36 ± 0.54 mN/m | 28.7 ± 0.53 mN/m |  | 1178.97 ± 1.1 kg/m3 |  | 1189.09 ± 1.1 kg/m3 | 1184.88 ± 1.1 kg/m3 | 1173.1 ± 1.1 kg/m3 | 1167.26 ± 1.1 kg/m3 | 1161.46 ± 1.1 kg/m3 | 1154.88 ± 1.1 kg/m3 | 1142.62 ± 1.1 kg/m3 |
| BrCBr [dibromomethane] | 38.5 ± 0.7 mN/m | 37.76 ± 0.69 mN/m | 37.09 ± 0.68 mN/m | 36.32 ± 0.66 mN/m | 35.55 ± 0.65 mN/m |  |  |  |  |  |  |  |  |  |  |
| ClCCCCCCCl [1,6-dichlorohexane] | 35 ± 0.71 mN/m | 34.31 ± 0.69 mN/m | 33.73 ± 0.68 mN/m | 33.09 ± 0.67 mN/m | 32.7 ± 0.66 mN/m |  |  |  |  |  |  |  |  |  |  |
| BrCCCCCCBr [1,6-dibromohexane] | 38.92 ± 0.71 mN/m | 38.36 ± 0.7 mN/m | 37.78 ± 0.69 mN/m | 37.21 ± 0.68 mN/m | 36.63 ± 0.67 mN/m |  |  |  |  |  |  |  |  |  |  |
